According to patent publication US20240228488A1 (TAKEDA PHARMACEUTICAL COMPANY LIMITED, priority 2021, published 2024):

Experiments:
[1] = molecular target: T1, plasma kallikrein (Homo sapiens, UniProt P03952); assay: Neat human plasma assay, FXIIa contact pathway-activated, PFR-AMC substrate; type: biochemical; conditions: citrated human plasma 78% final, 10 nM human FXIIa, 100 μM PFR-AMC; read-out: Human Plasma Assay: IC90
T1 construct: from tissue
How it was run: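 Citrated human plasma (78% final) with compound, contact-activated by 10 nM human FXIIa in pKal buffer pH 7.5, with 100 μM PFR-AMC. Fluorescence (360/480 nm) followed 5 min at room temperature; rates versus concentration fitted by 4-parameter equation for IC50/IC90.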

[2] = molecular target: human activated kallikrein enzyme (Homo sapiens, UniProt P03952); assay: Plasma kallikrein inhibition, fluorogenic PFR-AMC substrate, 500 pM activated kallikrein format; type: biochemical; conditions: 500 pM activated kallikrein, 300 uM PFR-AMC, 30 min preincubation, 10 min reaction; read-out: Primary Dose Response Assay: Average EC50
How it was run: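 Enzyme (500 pM) was preincubated with inhibitor for 30 min at room temperature in 20 mM Tris pH 7.5, 1 mM EDTA, 150 mM NaCl, 0.1% PEG-400 and 0.1% Triton X-100. The reaction was started with 300 uM PFR-AMC, run 10 min, and fluorescence read at 460 nm (380 nm excitation). EC50 derived.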

human activated kallikrein enzyme, sequence (P03952 391-638 limits assumed): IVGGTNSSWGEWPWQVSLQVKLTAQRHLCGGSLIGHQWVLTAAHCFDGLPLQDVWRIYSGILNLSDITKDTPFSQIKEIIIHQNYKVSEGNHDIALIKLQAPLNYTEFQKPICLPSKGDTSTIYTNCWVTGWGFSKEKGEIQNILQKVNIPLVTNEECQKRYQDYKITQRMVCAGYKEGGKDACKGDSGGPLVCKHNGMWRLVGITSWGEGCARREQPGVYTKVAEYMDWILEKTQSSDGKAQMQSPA
human activated kallikrein enzyme, sequence (P03952 20-390 partner limits assumed): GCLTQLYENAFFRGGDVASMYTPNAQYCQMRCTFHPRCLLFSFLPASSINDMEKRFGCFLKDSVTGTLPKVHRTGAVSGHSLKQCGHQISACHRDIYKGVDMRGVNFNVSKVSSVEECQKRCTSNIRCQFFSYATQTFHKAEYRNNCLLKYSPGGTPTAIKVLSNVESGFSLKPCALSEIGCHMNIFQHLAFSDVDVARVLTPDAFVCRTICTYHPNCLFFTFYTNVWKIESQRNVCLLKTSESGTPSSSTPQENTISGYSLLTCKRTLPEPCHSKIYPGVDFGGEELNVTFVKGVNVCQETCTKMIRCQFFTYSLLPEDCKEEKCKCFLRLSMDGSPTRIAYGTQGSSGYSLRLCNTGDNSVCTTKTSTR
T1 sequence (P03952 391-638 limits assumed): as the sequence (P03952 391-638 limits assumed) above
T1 sequence (P03952 20-390 partner limits assumed): as the sequence (P03952 20-390 partner limits assumed) above

Structure (SMILES) | IC90 [1] | EC50 [2]
CN1C(=O)CN(c2cc(C3CC3)cn3cc(CNc4cc(NC(=O)[C@H]5C[C@@H]5c5cc(Cl)ccn5)ncn4)nc23)C1=O (racemic) [Example I-262, rac-(1S*,2S*)-2-(4-chloropyridin-2-yl)-N-(6-(((6-cyclopropyl-8-(3-methyl-2,4-dioxoimidazolidin-1-yl)imidazo[1,2-a]pyridin-2-yl)methyl)amino)pyrimidin-4-yl)cyclopropane-1-carboxamide] | 400 to 1500 nM | < 1 nM
Cc1ccnc([C@H]2C[C@@H]2C(=O)Nc2cc(NCc3cn4cc(C5CC5)cc(N5CC(=O)N(C)C5=O)c4n3)nc(C)n2)n1 (racemic) [Example 366, rac-(1S*,2S*)-N-(6-(((6-cyclopropyl-8-(3-methyl-2,4-dioxoimidazolidin-1-yl)imidazo[1,2-a]pyridin-2-yl)methyl)amino)-2-methylpyrimidin-4-yl)-2-(4-methylpyrimidin-2-yl)cyclopropane-1-carboxamide] | < 400 nM | < 1 nM
Cc1ccnc([C@@]2(F)C[C@@H]2C(=O)Nc2cc(N(C)Cc3cn4cc(C5CC5)cc(N5CC(=O)N(C)C5=O)c4n3)nc(C)n2)n1 (racemic) [Example 490, rac-(1S*,2S*)-N-(6-(((6-cyclopropyl-8-(3-methyl-2,4-dioxoimidazolidin-1-yl)imidazo[1,2-a]pyridin-2-yl)methyl)(methyl)amino)-2-methylpyrimidin-4-yl)-2-fluoro-2-(4-methylpyrimidin-2-yl)cyclopropane-1-carboxamide] | 400 to 1500 nM | < 1 nM
O=C(Nc1cc(N2C[C@@H](O)C[C@@H]2c2cn3cc(C4CC4)ccc3n2)ncn1)[C@H]1C[C@@H]1c1cc(Cl)ccn1 (single isomer, unassigned; isomer 2) [Example I-249, (1S*,2S*)-2-(4-chloropyridin-2-yl)-N-(6-((2R,4S)-2-(6-cyclopropylimidazo[1,2-a]pyridin-2-yl)-4-hydroxypyrrolidin-1-yl)pyrimidin-4-yl)cyclopropane-1-carboxamide, isomer 2] | < 400 nM | 1 to 10 nM
Cc1ccnc([C@H]2C[C@@H]2C(=O)Nc2cc(N[C@H](C)c3cn4cc(C5CC5)cc(N5CCCC5=O)c4n3)ncn2)n1 [Example 418, (1S,2S)-N-(6-(((R)-1-(6-cyclopropyl-8-(2-oxopyrrolidin-1-yl)imidazo[1,2-a]pyridin-2-yl)ethyl)amino)pyrimidin-4-yl)-2-(4-methylpyrimidin-2-yl)cyclopropane-1-carboxamide] | < 400 nM | < 1 nM
CN1C(=O)CN(c2cc(C3CC3)cn3cc(COc4cnnc(NC(=O)[C@H]5C[C@@H]5c5cccc(Cl)c5)c4)nc23)C1=O [Example 557, (1S,2S)-2-(3-chlorophenyl)-N-(5-((6-cyclopropyl-8-(3-methyl-2,4-dioxoimidazolidin-1-yl)imidazo[1,2-a]pyridin-2-yl)methoxy)pyridazin-3-yl)cyclopropane-1-carboxamide] | 400 to 1500 nM | < 1 nM
O=C(Nc1cc(NCc2cn3cc(C4CC4)cc(N4CC5(C4)CN(C4CC4)C5)c3n2)ccn1)[C@H]1C[C@@H]1c1cccc(Cl)c1 [Example I-24, (1S,2S)-2-(3-chlorophenyl)-N-(4-(((6-cyclopropyl-8-(6-cyclopropyl-2,6-diazaspiro[3.3]heptan-2-yl)imidazo[1,2-a]pyridin-2-yl)methyl)amino)pyridin-2-yl)cyclopropane-1-carboxamide] | 1500 to 10000 nM | < 1 nM
Cc1ccnc([C@H]2C[C@@H]2C(=O)Nc2cc(NCc3cn4cc(C5CC5)cc(N5CC(=O)N(C)C5=O)c4n3)ccn2)n1 (racemic) [Example I-208, rac-(1S*,2S*)-N-(4-(((6-cyclopropyl-8-(3-methyl-2,4-dioxoimidazolidin-1-yl)imidazo[1,2-a]pyridin-2-yl)methyl)amino)pyridin-2-yl)-2-(4-methylpyrimidin-2-yl)cyclopropane-1-carboxamide] | < 400 nM | < 1 nM
Cc1ccnc([C@H]2C[C@@H]2C(=O)Nc2cc(N3C[C@@H](O)C[C@@H]3c3cn4cc(C5CC5)ccc4n3)ncn2)c1 (relative stereo) [Example 472, rac-(1S*,2S*)-N-(6-((2R,4S)-2-(6-cyclopropylimidazo[1,2-a]pyridin-2-yl)-4-hydroxypyrrolidin-1-yl)pyrimidin-4-yl)-2-(4-methylpyridin-2-yl)cyclopropane-1-carboxamide] | 1500 to 10000 nM | 1 to 10 nM
CN1CCN(c2cc(C3CC3)cn3cc(CNc4cnnc(NC(=O)[C@H]5C[C@@H]5c5cccc(Cl)c5)c4)nc23)CC1 [Example 612, (1S,2S)-2-(3-chlorophenyl)-N-(5-(((6-cyclopropyl-8-(4-methylpiperazin-1-yl)imidazo[1,2-a]pyridin-2-yl)methyl)amino)pyridazin-3-yl)cyclopropane-1-carboxamide] | 1500 to 10000 nM | < 1 nM
Cc1ccnc([C@H]2C[C@@H]2C(=O)Nc2cncc(NCc3cn4cc(C5CC5)cc(N5CC(=O)N(C)C5=O)c4n3)c2)n1 (racemic) [Example 575, rac-(1S*,2S*)-N-(5-(((6-cyclopropyl-8-(3-methyl-2,4-dioxoimidazolidin-1-yl)imidazo[1,2-a]pyridin-2-yl)methyl)amino)pyridin-3-yl)-2-(4-methylpyrimidin-2-yl)cyclopropane-1-carboxamide] | < 400 nM | < 1 nM
Cc1ccnc([C@H]2C[C@@H]2C(=O)Nc2cc(OCc3cn4cc(C5CC5)cc(N5CC6(COC6)OC5=O)c4n3)nc(C)n2)n1 [Example 553, (1S,2S)-N-(6-((6-cyclopropyl-8-(6-oxo-2,5-dioxa-7-azaspiro[3.4]octan-7-yl)imidazo[1,2-a]pyridin-2-yl)methoxy)-2-methylpyrimidin-4-yl)-2-(4-methylpyrimidin-2-yl)cyclopropane-1-carboxamide] | < 400 nM | < 1 nM
CCOC(=O)CCc1cc(C2CC2)cn2cc(CNc3ccnc(NC(=O)[C@H]4C[C@@H]4c4cccc(Cl)c4)c3)nc12 [Example I-240, ethyl 3-(2-(((2-((1S,2S)-2-(3-chlorophenyl)cyclopropane-1-carboxamido)pyridin-4-yl)amino)methyl)-6-cyclopropylimidazo[1,2-a]pyridin-8-yl)propanoate] | 1500 to 10000 nM | 1 to 10 nM
N#Cc1ccc(Cl)cc1[C@H]1C[C@@H]1C(=O)Nc1cc(NCc2cn3cc(C4CC4)cc(COCCO)c3n2)ccn1 (racemic) [Example 289, rac-(1S*,2S*)-2-(5-chloro-2-cyanophenyl)-N-(4-(((6-cyclopropyl-8-((2-hydroxyethoxy)methyl)imidazo[1,2-a]pyridin-2-yl)methyl)amino)pyridin-2-yl)cyclopropane-1-carboxamide] | 1500 to 10000 nM | < 1 nM
O=C(Nc1cc(NCc2cn3cc(C4CC4)cc(N4C[C@@H](O)CC4=O)c3n2)ncn1)[C@H]1C[C@@H]1c1cccc(Cl)c1 (relative stereo) [Example 62, (rac-(1S*,2S*))-2-(3-chlorophenyl)-N-(6-(((6-cyclopropyl-8-((S)-4-hydroxy-2-oxopyrrolidin-1-yl)imidazo[1,2-a]pyridin-2-yl)methyl)amino)pyrimidin-4-yl)cyclopropane-1-carboxamide] | 1500 to 10000 nM | 1 to 10 nM
Cc1ccnc([C@H]2C[C@@H]2C(=O)Nc2cc(NCc3cn4cc(C5CC5)cc(N5CC6CC6C5=O)c4n3)ncn2)n1 (relative stereo) [Example 317, rac-(1S*,2S*)—N-(6-(((6-cyclopropyl-8-(2-oxo-3-azabicyclo[3.1.0]hexan-3-yl)imidazo[1,2-a]pyridin-2-yl)methyl)amino)pyrimidin-4-yl)-2-(4-methylpyrimidin-2-yl)cyclopropane-1-carboxamide] | 1500 to 10000 nM | < 1 nM
CS(=O)(=O)c1cc(C2CC2)cn2cc(CNc3cc(NC(=O)[C@H]4C[C@@H]4c4cccc(Cl)c4)ncn3)nc12 [Example I-162, (1S,2S)-2-(3-chlorophenyl)-N-(6-(((6-cyclopropyl-8-(methylsulfonyl)imidazo[1,2-a]pyridin-2-yl)methyl)amino)pyrimidin-4-yl)cyclopropane-1-carboxamide] | 1500 to 10000 nM | 1 to 10 nM
O=C(Nc1cc(NCc2cn3cc(C4CC4)cc(C(=O)N4CCOCC4)c3n2)ncn1)[C@H]1C[C@@H]1c1cccc(Cl)c1 [Example 300, (1S,2S)-2-(3-chlorophenyl)-N-(6-(((6-cyclopropyl-8-(morpholine-4-carbonyl)imidazo[1,2-a]pyridin-2-yl)methyl)amino)pyrimidin-4-yl)cyclopropane-1-carboxamide] | 1500 to 10000 nM | < 1 nM
Cc1ccnc([C@H]2C[C@@H]2C(=O)Nc2cc(N(C)Cc3cn4cc(C5CC5)cc(N5CC(=O)NC5=O)c4n3)ncn2)n1 [Example 375, (1S,2S)-N-(6-(((6-cyclopropyl-8-(2,4-dioxoimidazolidin-1-yl)imidazo[1,2-a]pyridin-2-yl)methyl)(methyl)amino)pyrimidin-4-yl)-2-(4-methylpyrimidin-2-yl)cyclopropane-1-carboxamide] | < 400 nM | < 1 nM
CN(C)S(=O)(=O)c1cc(C2CC2)cn2cc(CNc3cc(NC(=O)[C@H]4C[C@@H]4c4cccc(Cl)c4)ncn3)nc12 [Example I-151, (1S,2S)-2-(3-chlorophenyl)-N-(6-(((6-cyclopropyl-8-(N,N-dimethylsulfamoyl)imidazo[1,2-a]pyridin-2-yl)methyl)amino)pyrimidin-4-yl)cyclopropane-1-carboxamide] | 1500 to 10000 nM | 1 to 10 nM
